Test system: BSC cells, SV40 CPE inhibition
Test: antiviral efficacy against SV40, host toxicity – BSC cells, set 3, confirmation (AID 485276)
Conditions: measured here: BSC cell cytotoxicity

SMILES	TC50 [µM]
CC(C)(c1ccc(O)cc1)c1ccc(O)cc1	17
Oc1ccc(Cl)cc1Cc1cc(Cl)ccc1O	18
CC(C)(c1ccc(O)cc1)c1ccc(Cl)cc1	71.2
Oc1ccc(Oc2ccc(O)cc2)cc1	9.92
Oc1ccc(C2(c3ccc(O)cc3)CC2)cc1	196
CC(C)c1cc(C(C)(C)c2ccc(O)c(C(C)C)c2)ccc1O	24
Oc1c(Cl)cc(Cl)cc1Sc1cc(Cl)cc(Cl)c1O	21.2

Source: PubChem BioAssay AID485276 (Southern Research Specialized Biocontainment Screening …, 2010)
